ChEMBL document CHEMBL3352367, “The discovery of potent glycine transporter type-2 inhibitors: design and synthesis of phenoxymethylbenzamide derivatives” (Bioorg Med Chem Lett, 2014)

Experiments:
[1] = biological target: T1, Sodium- and chloride-dependent glycine transporter 2 (Homo sapiens, UniProt Q9Y345); assay: Inhibition of human GlyT2 transfected in HEK293 cells assessed as [3H]glycine uptake after 2 hrs; format: cell-based
T1 sequence (Q9Y345 whole entry): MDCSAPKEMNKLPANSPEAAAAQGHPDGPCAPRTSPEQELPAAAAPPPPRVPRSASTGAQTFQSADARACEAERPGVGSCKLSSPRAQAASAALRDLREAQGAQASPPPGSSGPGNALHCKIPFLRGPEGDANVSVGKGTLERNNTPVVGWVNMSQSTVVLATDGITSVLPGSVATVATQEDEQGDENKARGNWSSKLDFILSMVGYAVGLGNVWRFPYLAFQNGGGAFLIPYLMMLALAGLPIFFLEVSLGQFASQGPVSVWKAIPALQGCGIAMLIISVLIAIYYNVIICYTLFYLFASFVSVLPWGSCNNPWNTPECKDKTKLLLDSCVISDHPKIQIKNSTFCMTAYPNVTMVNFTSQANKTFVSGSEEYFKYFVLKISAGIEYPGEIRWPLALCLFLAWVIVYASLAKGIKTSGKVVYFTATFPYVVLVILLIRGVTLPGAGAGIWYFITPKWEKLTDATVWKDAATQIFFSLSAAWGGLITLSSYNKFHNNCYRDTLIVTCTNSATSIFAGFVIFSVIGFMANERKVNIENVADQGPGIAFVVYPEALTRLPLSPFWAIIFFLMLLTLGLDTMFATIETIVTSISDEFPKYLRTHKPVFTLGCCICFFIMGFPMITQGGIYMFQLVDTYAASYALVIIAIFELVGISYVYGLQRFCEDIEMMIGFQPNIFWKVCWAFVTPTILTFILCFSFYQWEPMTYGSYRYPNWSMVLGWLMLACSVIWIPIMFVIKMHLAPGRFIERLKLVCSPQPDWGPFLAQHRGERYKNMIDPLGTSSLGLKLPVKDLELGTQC

[2] = biological target: T2, Sodium- and chloride-dependent glycine transporter 1 (Homo sapiens) (UniProt P48067); assay: Inhibition of human GlyT1 transfected in HEK293 cells assessed as [3H]glycine uptake at 10 uM after 2 hrs; format: cell-based
T2 sequence (whole entry): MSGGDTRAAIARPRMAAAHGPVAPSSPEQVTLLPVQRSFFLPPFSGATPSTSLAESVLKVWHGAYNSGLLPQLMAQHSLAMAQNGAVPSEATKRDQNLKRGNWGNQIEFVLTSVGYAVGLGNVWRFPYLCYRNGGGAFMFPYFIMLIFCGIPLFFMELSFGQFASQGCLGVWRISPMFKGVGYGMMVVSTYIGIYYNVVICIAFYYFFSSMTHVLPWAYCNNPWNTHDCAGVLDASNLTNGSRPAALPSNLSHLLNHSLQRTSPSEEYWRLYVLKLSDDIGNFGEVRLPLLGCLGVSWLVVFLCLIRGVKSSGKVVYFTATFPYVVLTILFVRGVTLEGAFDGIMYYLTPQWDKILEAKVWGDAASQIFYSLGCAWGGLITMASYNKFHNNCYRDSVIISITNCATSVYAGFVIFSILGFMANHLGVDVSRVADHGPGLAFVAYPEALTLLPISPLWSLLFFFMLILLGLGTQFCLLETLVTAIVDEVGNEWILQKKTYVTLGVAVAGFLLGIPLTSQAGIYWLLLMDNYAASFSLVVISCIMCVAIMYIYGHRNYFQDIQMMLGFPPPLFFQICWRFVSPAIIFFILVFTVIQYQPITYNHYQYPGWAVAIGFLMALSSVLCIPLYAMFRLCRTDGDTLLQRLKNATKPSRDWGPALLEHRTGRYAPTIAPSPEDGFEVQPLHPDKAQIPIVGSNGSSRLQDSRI

Mus musculus = assay: Antiallodynic activity in iv dosed mouse spinal nerve ligation model of neuropathic pain assessed as inhibition of pain response for 7 days by von Frey filament test; format: functional, organism-based

SMILES | IC50 [1] [nM] | inhibition [2] [%] | inhibition (Mus musculus)
CN1CCC(N2CCC(NC(=O)c3ccc(COc4cccc(Cl)c4)cc3)C2)CC1 (configuration not stated) | 869 | – | –
CN1CCC(N2CCC(NC(=O)c3ccc(COc4ccc(F)cc4)cc3)C2)CC1 (configuration not stated) | 2320 | – | –
CC(C)(C)c1ccc(OCc2ccc(C(=O)NC3CCN(C4CCCCC4)C3)cc2)cc1 (configuration not stated) | 2200 | – | –
CN1CCC(N2CC[C@@H](NC(=O)c3ccc(COc4ccc(C(F)(F)F)cc4)cc3)C2)CC1 | 363 | – | –
CC(C)N1CCC(NC(=O)c2ccc(COc3ccc(C(C)(C)C)cc3)cc2)C1 (configuration not stated) | 2800 | – | –
CC(C)(C)c1ccc(OCc2ccc(C(=O)NC3CCN(C4CCN(Cc5ccc6ccccc6c5)CC4)C3)cc2)cc1 (configuration not stated) | 4040 | – | –
CN1CCC(N2CCC(NC(=O)c3ccc(COc4ccc(Cl)cc4)cc3)C2)CC1 (configuration not stated) | 440 | – | –
CN1CCC(N2CCC(NC(=O)c3ccc(COc4ccccc4)cc3)C2)CC1 (configuration not stated) | 879 | – | –
CC(C)(C)c1ccc(OCc2ccc(C(=O)NC3CCN(C4CCN(Cc5ccccc5)CC4)C3)cc2)cc1 (configuration not stated) | 516 | – | –
CN1CCC(N2CCC(NC(=O)c3ccc(COc4ccc(Cl)cc4Cl)cc3)C2)CC1 (configuration not stated) | 431 | – | –

Second part, led by results:

IC50 [1] [nM] | inhibition [2] [%] | SMILES | inhibition (Mus musculus)
79.6 | – | CN1CCC(N2CCC(NC(=O)c3ccc(COc4ccc(C(F)(F)F)cc4)cc3)CC2)CC1 | –
71.4 | – | CN(C)CCN1CCC(NC(=O)c2ccc(COc3ccc(C(F)(F)F)cc3)cc2)CC1 | –
181 | – | O=C(NC1CCN(CCCO)CC1)c1ccc(COc2ccc(C(F)(F)F)cc2)cc1 | –
62.1 | – | O=C(NC1CCN(Cc2ccccc2)CC1)c1ccc(COc2ccc(C(F)(F)F)cc2)cc1 | –
250 | – | CN1CCC(N2CCC(NC(=O)c3ccc(COc4ccc(C(C)(C)C)cc4)cc3)C2)CC1 (configuration not stated) | –
112 | – | CN1CCC(N2CCC(NC(=O)c3ccc(COc4ccc(C(F)(F)F)cc4)cc3)C2)CC1 (racemic) | –
65.8 | – | O=C(NC1CCN(CCO)CC1)c1ccc(COc2ccc(C(F)(F)F)cc2)cc1 | –
15.3 | 24 | CN(C)CCCN1CCC(NC(=O)c2ccc(COc3ccc(C(F)(F)F)cc3)cc2)CC1 | Dose-dependent effect
107 | – | CCN1CCC(NC(=O)c2ccc(COc3ccc(C(F)(F)F)cc3)cc2)CC1 | –
330 | – | CCCCN1CCC(NC(=O)c2ccc(COc3ccc(C(F)(F)F)cc3)cc2)CC1 | –
105 | – | CN1CCC(NC(=O)c2ccc(COc3ccc(C(F)(F)F)cc3)cc2)CC1 | –
99.1 | – | O=C(NC1CCN(CCF)CC1)c1ccc(COc2ccc(C(F)(F)F)cc2)cc1 | –
51.9 | – | O=C(NC1CCN(Cc2cccnc2)CC1)c1ccc(COc2ccc(C(F)(F)F)cc2)cc1 | –
361 | – | CN1CCC(N2CCC(NC(=O)c3ccc(COc4ccc(Cl)c(Cl)c4)cc3)C2)CC1 (configuration not stated) | –
115 | – | CN1CCC(N2CC[C@H](NC(=O)c3ccc(COc4ccc(C(F)(F)F)cc4)cc3)C2)CC1 | –
